In paper PMC10914475 (iScience, 2024) one finds IC50 data, which are given here for 1 compound.

For the experiment, the target named is SfCht5 (S. frugiperda chitinase 5; rSfCht5) (Spodoptera frugiperda, UniProt A0A8K1Z7B3). Put plainly: residual endochitinase activity with synthetic substrate. The experiment is classed as biochemical.

The IC50 is the concentration that inhibits the measured activity by half. A lower IC50 goes with inhibition by little substance.

Sequence of SfCht5 (S. frugiperda chitinase 5; rSfCht5) (A0A8K1Z7B3 21-555): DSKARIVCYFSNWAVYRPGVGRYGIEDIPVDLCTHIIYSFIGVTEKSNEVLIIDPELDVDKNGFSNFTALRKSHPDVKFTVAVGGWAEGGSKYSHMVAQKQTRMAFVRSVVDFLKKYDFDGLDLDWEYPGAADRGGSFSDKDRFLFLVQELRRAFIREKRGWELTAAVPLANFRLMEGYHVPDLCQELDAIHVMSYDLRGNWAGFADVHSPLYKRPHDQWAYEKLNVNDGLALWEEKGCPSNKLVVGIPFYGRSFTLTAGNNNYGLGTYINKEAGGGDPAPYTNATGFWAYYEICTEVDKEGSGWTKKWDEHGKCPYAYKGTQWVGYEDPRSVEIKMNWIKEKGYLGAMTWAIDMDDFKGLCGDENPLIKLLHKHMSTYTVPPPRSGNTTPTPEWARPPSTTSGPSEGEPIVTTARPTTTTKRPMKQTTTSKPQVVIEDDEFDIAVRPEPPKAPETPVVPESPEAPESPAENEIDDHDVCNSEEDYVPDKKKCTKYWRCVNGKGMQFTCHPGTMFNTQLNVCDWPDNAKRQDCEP

`COc1ccc2cc3[n+](cc2c1OC)CCc1cc2c(cc1-3)OCO2` [berberine, 9,10-Dimethoxy-5,6-dihydro-[1,3] dioxolo[4,5-g]isoquinolino[3,2-a]isoquinolin-7-ium chloride dihydrate] gave a concentration for half-maximal inhibition (IC50) of around 158 µM.
